Several values for one entry are separate records, joined by “and”; a condition that tells them apart may be missing. Equal values may be shown once.
Tests used:
[1] = test system: KPC/ESBL producing Enterobacteriaceae; assay: Double Disk Synergy Test (Methodology 1); assay type: cell-based, Klebsiella pneumoniae, Escherichia coli; conditions: Compound-1 60 μg disk at 7 & 10 mm from antibiotic disks; FIG. 1
Description: In this experiment, Compound-1 is used as a diagnostic reagent for the detection of β-lactamases belonging to the families KPC & ESBL (e.g., SHV18) producing Enterobacteriaceae. A simple set of absorbent paper disks impregnated with antibiotic on agar medium is used for the detection.
• 0.5 McFarland of the test organism was inoculated at 1:10 dilution on Muller • Hinton Agar plates • Test organisms: Klebsiella pneumoniae (K.p) ATCC BAA-1705, Klebsiella pneumoniae ATCC 700603, Escherichia coli (E.c) Ecoli233 • Carbapenem (e.g., Imipenem [IPM] 10 μg) and cephalosporin (e.g., Ceftazidime [CAZ] 30 μg) paper disks (7 mm) were placed on the inoculated agar plates • Compound-1 (60 μg) disk was placed at a distance of 7 & 10 mm from the carbapenem and cephalosporin disks. • The presence of expressed carbapenemases or ESBLs was measured as the expansion of Imipenem or Ceftazidime's inhibition zones due to synergy in the presence of Compound-1.

[2] = test system: KPC-2 producing K. pneumoniae (ATCC BAA-1705); assay: Synergistic broth micro-dilution MIC (checkerboard); assay type: cell-based, Klebsiella pneumoniae; conditions: ATCC BAA-1705
[3] = test system: K. pneumoniae UMM3 (KPC2); assay: Synergistic broth micro-dilution MIC; assay type: cell-based, Klebsiella pneumoniae; conditions: BLI at 4 μg/mL
[4] = test system: KPC-3 expressing E. coli (J53 R6206); assay: microbe, parasite or virus in culture; assay type: cell-based, Escherichia coli
Description: The β-lactam compound was tested for in vitro antibacterial activities by the broth micro-dilution or agar dilution method as specified in documents published by Clinical and Laboratory Standards Institute (CLSI), USA (formerly NCCLS). Approved standard M7-A7, January 2006, CLSI, Wayne, Pa., USA and M100-S18, January 2008, CLSI, Wayne, Pa., USA.
In agar dilution method briefly, stock solutions of the cephalosporins for veterinary use (e.g. 2 mg/mL) was made in water, 0.1M phosphate buffers or appropriate solvents and the solution was serially two fold diluted. Compound-1 was dissolved in water and Tazobactam (comparator BLI) in 0.1M phosphate buffer, pH 6.0 to get a solution of 1 mg/mL. Cephalosporins were screened in a concentration range of 0.5-32 μg/mL. For combination, Tazobactam or the Compound-1 described herein were tested at a fixed concentration of 4 μg/mL along with the cephalosporins concentration ranging from 0.5 to 32 μg/mL. […] The compound of formula (I) and Tazobactam were also tested individually. The bacterial inoculum was prepared by picking 3 to 5 well isolated bacterial colonies with the same morphological appearance from an 18-24 h old culture and adjusting the turbidity of the saline suspension to 0.5 McFarland turbidity standard equivalent to a bacterial population of ˜1×10^8 CFU per mL of suspension. The suspension was diluted 1:10 in saline to get a bacterial population of ˜1×10^7 CFU/mL as inoculum. This bacterial inoculum was inoculated onto the prepared petri dishes by a multipoint inoculator with each inoculum spot containing ˜1×10^4 CFU of the bacterial strain. The inoculated petri dishes were incubated at 35° C. in an ambient atmosphere for 18-20 h.

[5] = test system: KPC2 K. pneumoniae ATCC BAA 1705; assay: Mice systemic infection model; assay type: in vivo; conditions: sub-cutaneous, printed as piperacillin:BLI dose
[6] = BLI at 4 μg/mL, E. coli J53 R6206

## C[n+]1ccn(C[C@@]2(C)[C@H](C(=O)[O-])N3C(=O)C[C@H]3S2(=O)=O)n1 [Compound-1, 1-{[(2S,3S,5R)-2-Carboxy-3-methyl-4,4,7-trioxo-4-thia-1-azabicyclo[3.2.0]hept-3-yl]methyl}-3-methyl-1H-1,2,3-triazol-3-ium]
[1]
  Synergy: increase of Imipenem or Ceftazidime zone adjacent to Compound-1 disk: Synergy was observed
[2]; BLI at 1 μg/mL
  MIC of Cefquinome in combination with BLI: >64 mg/L
  MIC of Ceftiofur in combination with BLI: >64 mg/L
[2]; BLI at 2 μg/mL
  MIC of Cefepime in combination with BLI: 64 mg/L
  MIC of Cefotaxime in combination with BLI: 32 mg/L
  MIC of Cefquinome in combination with BLI: >64 mg/L
  MIC of Ceftazidime in combination with BLI: >64 mg/L
  MIC of Ceftiofur in combination with BLI: >64 mg/L
  MIC of Ceftobiprole in combination with BLI: >64 mg/L
  MIC of Imipenem in combination with BLI: 4 to 8 mg/L
  MIC of Meropenem in combination with BLI: 16 mg/L
[2]; BLI at 4 μg/mL
  MIC of Aztreonam in combination with BLI: >64 mg/L
  MIC of Cefadroxil in combination with BLI: >64 mg/L
  MIC of Cefalonium in combination with BLI: >64 mg/L
  MIC of Cefepime in combination with BLI: 32 mg/L
  MIC of Cefotaxime in combination with BLI: 16 mg/L
  MIC of Cefquinome in combination with BLI: 64 mg/L
  MIC of Ceftazidime in combination with BLI: ≥64 mg/L
  MIC of Ceftiofur in combination with BLI: >64 mg/L
  MIC of Ceftobiprole in combination with BLI: >64 mg/L
  MIC of Ertapenem in combination with BLI: 32 mg/L
  MIC of Faropenem in combination with BLI: >64 mg/L
  MIC of Imipenem in combination with BLI: 4 mg/L
  MIC of Meropenem in combination with BLI: 4 to 8 mg/L and 8 mg/L
[2]; BLI at 8 μg/mL
  MIC of Cefepime in combination with BLI: 16 mg/L
  MIC of Cefotaxime in combination with BLI: 16 mg/L
  MIC of Cefquinome in combination with BLI: 64 mg/L
  MIC of Ceftazidime in combination with BLI: 64 mg/L
  MIC of Ceftiofur in combination with BLI: 64 mg/L
  MIC of Ceftobiprole in combination with BLI: >64 mg/L
  MIC of Ertapenem in combination with BLI: 16 mg/L
  MIC of Faropenem in combination with BLI: >64 mg/L
  MIC of Imipenem in combination with BLI: 2 mg/L
  MIC of Meropenem in combination with BLI: 2 to 4 mg/L
[2]; BLI at 16 μg/mL
  MIC of Aztreonam in combination with BLI: 64 mg/L
  MIC of Cefadroxil in combination with BLI: >64 mg/L
  MIC of Cefalonium in combination with BLI: 32 mg/L
  MIC of Cefepime in combination with BLI: 4 mg/L
  MIC of Cefotaxime in combination with BLI: 4 mg/L
  MIC of Cefquinome in combination with BLI: 8 to 16 mg/L
  MIC of Ceftazidime in combination with BLI: 4 mg/L
  MIC of Ceftiofur in combination with BLI: 16 to 32 mg/L
  MIC of Ceftobiprole in combination with BLI: 64 mg/L
  MIC of Ertapenem in combination with BLI: 8 mg/L
  MIC of Faropenem in combination with BLI: 64 mg/L
  MIC of Imipenem in combination with BLI: <0.5 to 1 mg/L and 1 mg/L
  MIC of Meropenem in combination with BLI: 1 mg/L
[2]; BLI at 32 μg/mL
  MIC of Cefquinome in combination with BLI: 2 to 4 mg/L
  MIC of Ceftiofur in combination with BLI: 4 mg/L
[2]; BLI at 64 μg/mL
  MIC of Aztreonam in combination with BLI: <0.5 mg/L
  MIC of Cefadroxil in combination with BLI: 64 mg/L
  MIC of Cefalonium in combination with BLI: 8 mg/L
  MIC of Cefepime in combination with BLI: <0.5 mg/L
  MIC of Cefotaxime in combination with BLI: ≤0.5 mg/L
  MIC of Cefquinome in combination with BLI: 1 mg/L
  MIC of Ceftazidime in combination with BLI: 1 mg/L
  MIC of Ceftiofur in combination with BLI: 2 to 4 mg/L
  MIC of Ceftobiprole in combination with BLI: ≤0.5 mg/L
  MIC of Ertapenem in combination with BLI: <0.5 mg/L
  MIC of Faropenem in combination with BLI: 4 mg/L
  MIC of Imipenem in combination with BLI: <0.5 to 1 mg/L
  MIC of Meropenem in combination with BLI: <0.5 mg/L
[3]
  MIC of Imipenem in combination with BLI: 1 mg/L
[4]; [6]
  MIC of Cefadroxil in combination with BLI: >32 mg/L
  MIC of Cefalonium in combination with BLI: 4 mg/L
  MIC of Cefquinome in combination with BLI: <0.5 mg/L
  MIC of Ceftiofur in combination with BLI: <0.5 mg/L
[4]; Escherichia coli, read-out: MIC of BLI alone
  MIC: > 16 mg/L
[5]
  ED50 of Piperacillin:BLI at 1:1 ratio: 50 mg/kg and 50:50 mg/kg
